Laboratory results as given in patent US6083976A, “Method of synthesis of derivatives of aloesin” (Univera Pharmaceuticals, Inc., priority 1999, dated 2000).
pIC50: −log10 of the molar value. Like-named read-outs stand apart in the source and are kept apart here.

Assays:
tyrosinase [1] = details: cited from earlier work
tyrosinase [2] = assay: Tyrosinase activity assay using L-DOPA as a substrate; format: biochemical; details: for pIC50: L-DOPA 0.4 mM, 48 U tyrosinase, absorbance at 475 nm, read-out: average concentration for 50% tyrosinase inhibition
Procedure: Example 2 illustrates the general method for determination of tyrosinase inhibition by the alkylated aloesins, using octylaloesin for purposes of illustration.
A tyrosinase activity assay was performed using L-DOPA as a substrate. Each 750 μL assay mixture contained KH2 PO4 /K2 HPO4 at a concentration of 50 mM, L-DOPA at a concentration of 0.4 mM, 48 U of tyrosinase activity (tyrosinase obtained from SIGMA at 4,400 U/mg), and varying concentrations of the inhibitor being tested. The progress of the reaction was monitored by measuring the absorbance of the reaction mixture at 475 nm.

[3] = relative to hydroquinone; cited from earlier work

| Structure (SMILES) | mode of tyrosinase inhibition (Lineweaver Burk diagram) (tyrosinase [1]) | pIC50 (tyrosinase [2]) | quantity required to achieve a similar effect, compared to the quantity of hydroquinone used [3] | also measured |
| --- | --- | --- | --- | --- |
| COc1cc(/C=C/C(=O)O[C@@H]2[C@@H](O)[C@H](O)[C@@H](CO)O[C@H]2c2c(O)cc(C)c3c(=O)cc(CC(C)=O)oc23)ccc1O [2"-O-feruloylaloesin] | non-competitive inhibitors of tyrosinase |  |  |  |
| CC(=O)Cc1cc(=O)c2c(C)cc(O)c([C@@H]3O[C@H](CO)[C@@H](O)[C@H](O)[C@H]3O)c2o1 [Aloesin] | non-competitive inhibitors of tyrosinase | 3.60 |  | pIC50 (tyrosinase [1]; substrate L-DOPA, read-out: concentration for 50% inhibition of tyrosinase activity): 3.70 |
| CCCCCCCCOc1cc(C)c2c(=O)cc(CC(C)=O)oc2c1[C@@H]1O[C@H](CO)[C@@H](O)[C@H](O)[C@H]1O [Octylaloesin] |  | 3.97 |  | fold more potent as a tyrosinase inhibitor than aloesin (tyrosinase [2]; ratio of 50% inhibition concentrations): approximately 2.3 fold |
| OC[C@H]1O[C@@H](Oc2ccc(O)cc2)[C@H](O)[C@@H](O)[C@@H]1O [arbutin] |  |  | over 100 times |  |
| O=C1O[C@H]([C@@H](O)CO)C(O)=C1O [ascorbic acid] |  |  | 17 times |  |
